Data published in patent US11179348B2, “Combination comprising pterostilbene for the treatment of cancer” (FUNDACIÓN UNIVERSIDAD CATÓLICA DE VALENCIA SAN VICENTE …, priority 2015, dated 2021).

Tests used:
SK-OV-3 cells = test: GSH levels and glutathione- and oxidative stress-related enzyme activities in SK-OV-3 cells growing in vivo; parameters: species or system human; details: SK-OV-3, in vivo Pter, day 49
Description: To measure enzyme activity, isolated tumor cells were homogenized in 0.1 M phosphate buffer (pH 7.2) at 4° C. GCL and GSS activities were measured as described previously (Obrador, E. et al. Hepatology 35, 74-81 (2002)). GPX (selenium dependent) activity was measured as described by Flohé and Gunzler (Flohe, L. & Gunzler, W. A. Methods Enzymol 105, 114-121 (1984)) using H2O2 as a substrate. GSR activity was determined as described by Akerboom and Sies (Akerboom, T. P. et al, Bull Eur Physiopathol Respir 17 Suppl, 221-227 (1981)). GGT activity was measured as described previously (Obrador, E. et al. Hepatology 35, 74-81 (2002)). GST activity was measured using an assay kit from Sigma. TXNRD activity, defined by the concentration of sodium-lipoate (disulfide) reduced to dehydrolipoate (dithiol) per milligram protein, was measured as previously described (Javvadi, P. et al. Cancer Res 70, 1941-1950 (2010)). SOD activity was measured as described by Flohé and Otting (Flohe, L. & Otting, F. Methods Enzymol 105, 93-104 (1984).) using 2 mM cyanide in the assay medium to distinguish mangano-type enzyme (SOD2) from the cuprozinc type (SOD1). CAT activity was analyzed as described by Aebi (Aebi, H. Methods Enzymol 105, 121-126 (1984)). NOX activity was measured by chemiluminescence following the methodology of Wind et al. (Wind, S. et al. Comparative pharmacology of chemically distinct NADPH oxidase inhibitors. Br J Pharmacol 161, 885-898 (2010)). Protein concentration was determined with the Pierce BCA protein assay (Fisher Scientific, Waltham, Mass.).
GSH, GSSG, NADP^+ and NADPH Determination.
GSH and GSSG were determined, following procedures previously described (Obrador, E. et al. PLoS One 9, e96466 (2014)), by LC/MS using the same equipment described above for pterostilbene determination. Cell processing was performed according to published methodology, where rapid N-ethylmaleimide derivatization was used to prevent GSH auto-oxidation (Asensi, M. et al. Anal Biochem 217, 323-328 (1994)). NADP^+ and NADPH were quantitated using an assay kit from Sigma (St. Louis, Mo.).
Isolation of Tumor Cells from Mouse Xenografts Using Enzymatic Digestion and a double Ficoll gradient.
To maximize the amount of isolated cells, avoiding the use of RFP-transfected cells and subsequent laser microdissection, an alternative methodology was set up. To maximize cell yield and viability the following combination of enzymes was used: collagenase III (200 U/ml; Sigma-Aldrich), DNase I (200 U/ml; Sigma-Aldrich) and trypsin (5 mg/ml; Invitrogen), and a non-enzymatic dissociation buffer (NEDB, Invitrogen). Briefly, mice were killed, and tumors were removed (avoiding skin, muscle and fat) into cold culture media and processed immediately. The tumors were minced into 1-3 mm fragments, which were then incubated with the dissociation solution (see above) for 30 min at 37° C. The tumor fragments were mixed up and down every 10 min using a […] micropipette with a tip cut to a diameter adapted to tissue fragment size. After each incubation period, the fragments were filtered through a […] nylon mesh cell strainer (BD Biosciences, San Diego, Calif., USA). The released cells were centrifuged at 1200 r.p.m. for 2 min and stored in cold CO2-independent medium with 30% FCS at […]. Fresh dissociation solution was added to the remaining tissue fragments for 30 min. Dissociation was stopped when no additional cells were released. The fragments were pushed through a sieve and all cells from all incubation periods were pooled and counted.
The dissociated cells were layered onto a double Ficoll gradient (Histopaque; Sigma-Aldrich; densities 1.077 and 1.119) and spun at 700 g for 30 min at room temperature. Cells removed from both interfaces were pooled and washed two times in CO2-independent medium and stored at 4° C. Debris and red blood cell elimination was improved with the dual-density gradient. […]

ACTH = test: Plasma ACTH levels (ELISA) in tumor-bearing mice; format: in vivo
Description: Measurement of ACTH, Corticosterone, and NORA Levels.
Plasma levels of ACTH (Calbiotech, Inc., Spring Valley, Calif.), corticosterone (Kamiyama Biomedical Co., Seattle, Wash.), and NORA (IBL, Hamburg, Germany) were quantified by ELISA according to the instructions of the suppliers.

[1] = system: human breast, lung, liver, prostate, ovarian, and colorectal cancer cell lines; test: Effect of Pter on growth or viability in vitro of breast, lung, liver, prostate, ovarian and colorectal tumor cell lines; format: cell-based; details: any of the tumor cell lines used (FIG. 15); 15 μM Pter×60 min every 24 h
Description: FIG. 15. In vivo effect of Pter on human breast, lung, liver, prostate, ovarian, and colorectal cancer growth. […] For the lower and maximum Pter dose used, in each case, only the endpoint of the treatment period is shown.
Human A2058, MeWo and MelJuso melanoma cells, and mouse AtT-20 pituitary corticotroph tumor cells were from the American Type Culture Collection (ATCC). Human HEMa-LP epidermal melanocytes were from Life Technologies (Grand Island, N.Y.). Human MDA-MB-231 (triple negative: ER−, PR−, HER2−) and MCF-7 (ER+, PR+, HER2−) breast adenocarcinoma, A549 lung adenocarcinoma (NSCLC), HepG2 hepatocellular carcinoma, LNCaP (AR+) and PC-3 (AR−) prostate adenocarcinoma, SK-OV-3 epithelial ovarian carcinoma, and HT-29 and Caco-2 colorectal carcinoma cells were from the American Type Culture Collection. Cells were grown in Dulbecco's modified Eagle's medium (DMEM) (Invitrogen, San Diego, Calif.), pH 7.4, supplemented with 10% heat-inactivated FCS (Biochrom KG, Berlin, Germany), 100 units/ml penicillin and 100 μg/ml streptomycin. […] Cell numbers were determined using a Coulter Counter (Coulter Electronic Inc., Miami, Fla.). […] Cellular viability was assessed as previously reported (Mena, S. et al. Clin Cancer Res 13, 2658-2666 (2007)), by measuring trypan blue exclusion and leakage of lactate dehydrogenase activity.

COc1cc(/C=C/c2ccc(O)cc2)cc(OC)c1 [Pter, trans-3,5-dimethoxy-4′-hydroxystilbene]
CAT (SK-OV-3 cells): 1.8 ± 0.4 mU/10^6 cells | GCL (SK-OV-3 cells): 18 ± 6 mU/10^6 cells | GSH (SK-OV-3 cells): 1.5 ± 0.7 nmol/10^6 cells | GSS (SK-OV-3 cells): 1.6 ± 0.4 mU/10^6 cells | GSSG (SK-OV-3 cells): 0.2 ± 0.05 nmol/10^6 cells | SOD1 (SK-OV-3 cells): 0.1 ± 0.03 U/10^6 cells | SOD2 (SK-OV-3 cells): 0.01 ± 0.005 U/10^6 cells | ACTH (ACTH; A549-bearing mice, day 35, 6 h circadian time): 79 ± 19 pg/mL plasma | ACTH (ACTH; AsPC-1-bearing mice, day 28, 6 h circadian time): 112 ± 31 pg/mL plasma | ACTH (ACTH; BxPC-3-bearing mice, day 35, 6 h circadian time): 68 ± 11 pg/mL plasma | ACTH (ACTH; Caco-2-bearing mice, day 28, 6 h circadian time): 35 ± 15 pg/mL plasma | ACTH (ACTH; HT-29-bearing mice, day 21, 6 h circadian time): 44 ± 16 pg/mL plasma | ACTH (ACTH; HepG2-bearing mice, day 35, 6 h circadian time): 116 ± 25 pg/mL plasma | ACTH (ACTH; LNCaP-bearing mice, day 49, 6 h circadian time): 49 ± 15 pg/mL plasma | ACTH (ACTH; MCF-7-bearing mice, day 28, 6 h circadian time): 44 ± 9 pg/mL plasma | ACTH (ACTH; MDA-MB-231-bearing mice, day 35, 6 h circadian time): 65 ± 17 pg/mL plasma | ACTH (ACTH; PC-3-bearing mice, day 21, 6 h circadian time): 102 ± 30 pg/mL plasma | ACTH (ACTH; SK-OV-3-bearing mice, day 49, 6 h circadian time): 63 ± 19 pg/mL plasma | ACTH levels in plasma (ACTH; melanoma-bearing mice, pterostilbene treatment (FIG. 2B)): decreased | cell growth or viability in vitro [1]: did not affect
